Laboratory results reported in patent publication US9896522B2, “Solid phase fluorescence labeling reagents and uses thereof” (The Texas A&M University System, priority 2010, dated 2018).

What was measured:
[1] = buffer, pH 2; cited from earlier work
[2] = UV absorbance spectra and molar absorbance; format: physicochemical
Method: UV absorbance spectra were recorded using a Beckman 168 photodiode detector during the HILIC separations. The eluent compositions at the time of detection were 26 mM NH4HCO2 74% ACN/water for APTS, 24 mM NH4HCO2 76% ACN/water for trisulfonamide 22 and 10 mM MOPS with 5 mM NaOH in 76% ACN/water for 33. Fluorescence spectra at different pH values were recorded on a Shimadzu RF-5301PC spectrofluorometer. The buffers used are tabulated below: UV absorbance and fluorescence spectra for the quantum yield determinations were acquired using a Varian 100 Bio UV-Vis spectrophotometer and a Varian Cary Eclipse fluorescence spectrometer, respectively. The samples were dissolved in a pH 9 0.1M aqueous sodium bicarbonate buffer.

[3] = fluorescence emission spectra at different pH values; format: physicochemical; settings: fluorescence emission spectrum
Method: It was also developed to have pH-independent fluorescence properties which are important for CE applications. […] The molar absorbance and relative quantum yield values were also determined using Rhodamine 6G as a standard. UV absorbance spectra were recorded using a Beckman 168 photodiode detector during the HILIC separations. The eluent compositions at the time of detection were 26 mM NH4HCO2 74% ACN/water for APTS, 24 mM NH4HCO2 76% ACN/water for trisulfonamide 22 and 10 mM MOPS with 5 mM NaOH in 76% ACN/water for 33. Fluorescence spectra at different pH values were recorded on a Shimadzu RF-5301PC spectrofluorometer.

Q: Which half life [1] does the source give for CCCCCCCCCCCC1(C)OCC(COCCCS(=O)(=O)[O-])O1.[Na+] (stereo not shown) [ALS] here?
A: 8 min

Q: Which “share of the maximum absorbance that can be used at 488 nm” value ([2]; excitation at 488 nm) does the source give for Nc1cc(S(=O)(=O)O)c2ccc3c(S(=O)(=O)O)cc(S(=O)(=O)O)c4ccc1c2c43 [APTS, 8-Aminopyrene-1,3,6-trisulfonic acid, reference compound] here?
A: about 4%

Q: For CN(CCS(=O)(=O)O)S(=O)(=O)c1cc(N)c2ccc3c(S(=O)(=O)N(C)CCS(=O)(=O)O)cc(S(=O)(=O)N(C)CCS(=O)(=O)O)c4ccc1c2c34 [compound 22], which “shift of λmax ex towards longer wavelength” value ([2]; relative to APTS) is on record?
A: 44 nm

Q: And the λmax em [3]?
A: 540 nm
